Entries after “also recorded” stand apart in the source; their conditions may differ.

The test system of one experiment is FLJXXXXX-derived proteins. Kind of experiment: SEC/MS spin column interaction analysis of FLJXXXXX-derived proteins and various compounds (Tables 30-1 to 30-4). It counts as binding, human.
Conditions: not given
With cyclosporin A, the “FLJ No of the derived protein with which the compound was judged to exhibit a concentration-dependent interaction” value (from here on “FLJ No of the derived protein”) is given as “FLJ23466; also recorded: FLJ11211; also recorded: FLJ37909”.

Staying with this experiment, now noted: SEC spin column filtrate, spectral intensity increased with doses of compound and protein.
With `CCOc1ccc2ccccc2c1C(=O)N[C@@H]1C(=O)N2[C@@H]1SC(C)(C)[C@@H]2C(=O)O` [nafcillin], the “FLJ No of the derived protein” value is “FLJ39553”.

With `Cc1c(N(C)CS(=O)(=O)[O-])c(=O)n(-c2ccccc2)n1C.[Na+]` [dipyrone], the “FLJ No of the derived protein” value is listed as “FLJ35353”.

In the case of eburnamonine, the “FLJ No of the derived protein” value is on record as “FLJ11211”.

Take `Cc1cc2c(cc1S(N)(=O)=O)S(=O)(=O)CCC2` [meticrane]: the “FLJ No of the derived protein” value was “FLJ39553”.

For the molecule `Cl.Cl.OCCN1CCN(CCC=C2c3ccccc3Sc3ccc(C(F)(F)F)cc32)CC1` (mixture of isomers) [flupentixol], the “FLJ No of the derived protein” value was “FLJ37909”.

For the molecule `COc1cccc(CCc2ccccc2OCC(CN(C)C)OC(=O)CCC(=O)O)c1` (centres unmarked) [sarpogrelate], the “FLJ No of the derived protein” value is “FLJ39553”.

As to `CN(C)[C@@H]1C(O)=C(C(N)=O)C(=O)[C@@]2(O)C(O)=C3C(=O)c4c(O)ccc(Cl)c4[C@@H](O)[C@H]3C[C@@H]12` [demeclocycline], the “FLJ No of the derived protein” value is “FLJ39553”.

For `Cc1cccc(C)c1NC(=O)CN1CCN(CCCC(c2ccc(F)cc2)c2ccc(F)cc2)CC1` [lidoflazine], the “FLJ No of the derived protein” value is reported as “FLJ37909”.

Turning to `CC[C@H]1CN2CCc3cc(OC)c(OC)cc3[C@@H]2C[C@@H]1C[C@H]1NCCc2cc(OC)c(OC)cc21` [emetine], the “FLJ No of the derived protein” value is reported as “FLJ37909”.

Regarding `[H]/N=C(\N/C(=N/[H])NCCCCCCNC(=N)NC(=N)Nc1ccc(Cl)cc1)Nc1ccc(Cl)cc1` [chlorhexidine], the “FLJ No of the derived protein” value is reported as “FLJ37909”.

Turning to `COc1cc2nc(N3CCN(C(=O)C4COc5ccccc5O4)CC3)nc(N)c2cc1OC` (centres unmarked) [doxazosin], the “FLJ No of the derived protein” value is given as “FLJ37909”.

In the case of `NCCCC[C@H](N[C@@H](CCc1ccccc1)C(=O)O)C(=O)N1CCC[C@H]1C(=O)O` [lisinopril], the “FLJ No of the derived protein” value is reported as “FLJ40760”.

On to `COc1cc2c(cc1OC)-c1cc3ccc(OC)c(OC)c3c[n+]1CC2` [palmatine], for which the “FLJ No of the derived protein” value was “FLJ39553”.

Turning to `NCc1ccc(S(N)(=O)=O)cc1` [mafenide], the “FLJ No of the derived protein” value is “FLJ21841”.

Consider `CCN1C(=O)NC(c2ccccc2)C1=O` (centres unmarked) [ethotoin], for which the “FLJ No of the derived protein” value is “FLJ38531”.

Take `CC(C)/N=c1\cc2n(-c3ccc(Cl)cc3)c3ccccc3nc-2cc1Nc1ccc(Cl)cc1` [clofazimine]: the “FLJ No of the derived protein” value is listed as “FLJ35353”.

On to `C[N+]1(C)CCC(=C(c2ccccc2)c2ccccc2)CC1` [diphemanil], for which the “FLJ No of the derived protein” value was “FLJ36526”.

As to `COc1ccc2[nH]c3c(c2c1)CCN=C3C` [methoxy-6-harmalan], the “FLJ No of the derived protein” value was “FLJ39553”.

Turning to `c1ccc2c(c1)CCCC2C1=NCCN1` (centres unmarked) [tetrazoline], the “FLJ No of the derived protein” value is listed as “FLJ36526”.

As to `c1ccc2c(c1)CCCc1cc(NCCN3CCOCC3)nnc1-2` [SR-95639A], the “FLJ No of the derived protein” value is given as “FLJ36526”.

As for `COC(=O)Nc1nc2ccc(Sc3ccccc3)cc2[nH]1` [fenbendazole], the “FLJ No of the derived protein” value is reported as “FLJ37909”.

Take `CCCCc1oc2ccccc2c1C(=O)c1cc(I)c(OCCN(CC)CC)c(I)c1` [amiodarone]: the “FLJ No of the derived protein” value is recorded as “FLJ37909”.

Take `CC(=O)[C@@]1(O)CC[C@H]2[C@@H]3CCC4=CC(=O)CC[C@]4(C)[C@H]3CC[C@@]21C` [hydroxyprogesterone]: the “FLJ No of the derived protein” value is reported as “FLJ37909”.

Consider `Cc1cccc(Nc2ccccc2C(=O)O)c1C` [mefenamic acid], for which the “FLJ No of the derived protein” value is reported as “FLJ35353”.

On to `O=C1CN=C(c2ccccc2)c2cc(Cl)ccc2N1` [nordiazepam], for which the “FLJ No of the derived protein” value was “FLJ35353”.

With `C[C@H]1CC[C@]2(NC1)O[C@H]1C[C@H]3[C@@H]4CC[C@H]5C[C@@H](O)CC[C@]5(C)[C@H]4CC[C@]3(C)[C@H]1[C@@H]2C` [tomatidine], the “FLJ No of the derived protein” value was “FLJ35353”.

Turning to `CC#C[C@]1(O)CC[C@H]2[C@@H]3CCC4=CC(=O)CCC4=C3[C@@H](c3ccc(N(C)C)cc3)C[C@@]21C` [mifepristone], the “FLJ No of the derived protein” value is “FLJ22317”.

On to `CN1C[C@H](C(=O)N[C@]2(C)O[C@@]3(O)[C@@H]4CCCN4C(=O)[C@H](Cc4ccccc4)N3C2=O)C[C@@H]2c3cccc4[nH]cc(c34)C[C@H]21` [dihydroergotamine], for which the “FLJ No of the derived protein” value is reported as “FLJ37909”.

As for `COc1c(O)cc2c(c1O)[C@@H]1O[C@H](CO)[C@@H](O)[C@H](O)[C@H]1OC2=O` [bergenin], the “FLJ No of the derived protein” value was “FLJ39553”.

Regarding `O=c1[nH]c2ccccc2n1CCCN1CCC(n2c(=O)[nH]c3cc(Cl)ccc32)CC1` [domperidone], the “FLJ No of the derived protein” value is “FLJ20571”.

On to `CN(C)CCCN1c2ccccc2Sc2ccc(Cl)cc21` [chlorpromazine], for which the “FLJ No of the derived protein” value was “FLJ35353”.

For `COC(=O)[C@H]1[C@H]2C[C@@H]3c4[nH]c5cc(OC)ccc5c4CCN3C[C@H]2C[C@@H](OC(=O)c2cc(OC)c(OC)c(OC)c2)[C@@H]1OC` [reserpine], the “FLJ No of the derived protein” value was “FLJ37909”.

As to `CN(C(=O)CN(CCO)CC(=O)N(C)C(C)(C)Cc1ccccc1)C(C)(C)Cc1ccccc1` [oxethazaine], the “FLJ No of the derived protein” value is on record as “FLJ37909”.

For `O=C(O)CCCc1ccc(N(CCCl)CCCl)cc1` [chlorambucil], the “FLJ No of the derived protein” value was “FLJ23466”.

For celestine blue, the “FLJ No of the derived protein” value is given as “FLJ39553”.

Take `CC/C(=C(\c1ccccc1)c1ccc(OCCN(C)C)cc1)c1ccccc1` [tamoxifen]: the “FLJ No of the derived protein” value is listed as “FLJ37909”.

On to `O=C1CNC(=O)N1` [hydantoin], for which the “FLJ No of the derived protein” value is recorded as “FLJ35914”.

Regarding `CN1C(=O)CC(=O)N(c2ccccc2)c2cc(Cl)ccc21` [clobazam], the “FLJ No of the derived protein” value was “FLJ35353”.

Consider `CC(=O)O[C@H]1C(=O)[C@@]2(C)[C@H]([C@H](OC(=O)c3ccccc3)[C@]3(O)C[C@H](OC(=O)[C@H](O)[C@@H](NC(=O)c4ccccc4)c4ccccc4)C(C)=C1C3(C)C)[C@]1(OC(C)=O)CO[C@@H]1C[C@@H]2O` [paclitaxel], for which the “FLJ No of the derived protein” value is listed as “FLJ39553”.

Regarding `C=C[C@H]1C[N@@]2CC[C@H]1C[C@@H]2[C@@H](O)c1ccnc2ccccc12` [cinchonine], the “FLJ No of the derived protein” value was “FLJ39553”.

As to `CC(C)C[C@H]1C(=O)N2CCC[C@H]2[C@]2(O)O[C@](NC(=O)[C@@H]3C=C4c5cccc6[nH]cc(c56)C[C@H]4N(C)C3)(C(C)C)C(=O)N12` [α-ergocryptine], the “FLJ No of the derived protein” value is recorded as “FLJ35353”.

Regarding `O=c1cc(-c2ccc(O)cc2)oc2cc(O)cc(O)c12` [apigenin], the “FLJ No of the derived protein” value is on record as “FLJ39553”.

As for `CC(=O)CCCCn1c(=O)c2c(ncn2C)n(C)c1=O` [pentoxifylline], the “FLJ No of the derived protein” value is listed as “FLJ35353”.

Take `CC(N/C(=N\C#N)Nc1ccncc1)C(C)(C)C` (centres unmarked) [pinacidil]: the “FLJ No of the derived protein” value was “FLJ35353”.

Regarding `CCOC(=O)C1N=C(c2ccccc2F)c2cc(Cl)ccc2NC1=O` (centres unmarked) [ethyl loflazepate], the “FLJ No of the derived protein” value was “FLJ35353”.

For `COC(=O)[C@H]1[C@H]2C[C@@H]3c4[nH]c5cc(OC)ccc5c4CCN3C[C@H]2C[C@@H](OC(=O)/C=C/c2cc(OC)c(OC)c(OC)c2)[C@@H]1OC` [rescinnamine], the “FLJ No of the derived protein” value is “FLJ37909”.

With `Cc1cnc(C(=O)NCCc2ccc(S(=O)(=O)NC(=O)NC3CCCCC3)cc2)cn1` [glipizide], the “FLJ No of the derived protein” value is on record as “FLJ35353”.

For `Cc1cc(C(C)(C)CC(C)(C)C)ccc1OCCOCC[N+](C)(C)Cc1ccccc1.[Cl-]` [methylbenzethonium chloride], the “FLJ No of the derived protein” value was “FLJ20571; also recorded: FLJ35353”.

As to `Cc1c2ccncc2c(C)c2c1[nH]c1ccccc12` [ellipticine], the “FLJ No of the derived protein” value is reported as “FLJ35353”.

Turning to `CN1CCCC(CC2c3ccccc3Sc3ccccc32)C1` (centres unmarked) [methixene], the “FLJ No of the derived protein” value is recorded as “FLJ35353”.

Regarding `CC(CN(C)C)CN1c2ccccc2Sc2ccccc21` (centres unmarked) [alimemazine], the “FLJ No of the derived protein” value is recorded as “FLJ37909”.

Turning to `CNCCCC1c2ccccc2C=Cc2ccccc21` [protriptyline.], the “FLJ No of the derived protein” value is “FLJ20972”.

The values are drawn from patent publication US20090143285A1, “TARGET PROTEIN AND TARGET GENE FOR DRUG DISCOVERY AND SCREENING METHOD” (REVERSE PROTEOMICS RESEARCH INSTITUTE CO., LTD., priority 2005, published 2009).
